According to patent publication US20230303581A1, “ORALLY BIOAVAILABLE, BRAIN-PENETRANT COMPOUND WITH SELECTIVITY FOR THE CANNABINOID TYPE 2 RECEPTOR WITH POTENTIAL USE TOWARDS VISCERAL PAIN MANAGEMENT AND NEURODEGENERATIVE DISORDERS” (University of Mississippi, priority 2022, published 2023):
“Also recorded” adds a separate entry of the source.

Legend:
mice = experiment: Acetic acid-induced writhing test; type: in vivo
Text: Acetic acid-induced writhing is widely used for assessing analgesic effects against inflammatory pain of peripheral origin.

human CB2 receptors = human CB2 receptors (Homo sapiens (Human), UniProt P34972); experiment: Cannabinoid receptor binding (displacement) assay, CB2; conditions: CB2, full competition curves
Sequence of human CB2 receptors (P34972 whole entry): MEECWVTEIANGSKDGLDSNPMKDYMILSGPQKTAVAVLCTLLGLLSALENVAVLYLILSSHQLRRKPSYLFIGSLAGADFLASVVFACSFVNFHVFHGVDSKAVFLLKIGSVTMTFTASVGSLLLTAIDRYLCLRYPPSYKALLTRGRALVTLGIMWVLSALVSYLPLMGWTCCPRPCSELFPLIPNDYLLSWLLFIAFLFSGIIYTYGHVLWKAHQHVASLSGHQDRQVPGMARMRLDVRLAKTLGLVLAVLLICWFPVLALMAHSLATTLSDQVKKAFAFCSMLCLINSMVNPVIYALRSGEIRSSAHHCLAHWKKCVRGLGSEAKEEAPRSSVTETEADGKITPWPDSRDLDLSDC
Description: The affinities of the compounds for CB1 and CB2 receptors were examined using displacement assays, as previously described. Briefly, cell membranes from CHO cells expressing human CB1 or human CB2 receptors were isolated using differential centrifugation. Test compounds reconstituted in DMSO and were incubated with the isolated membrane in binding buffer (50 mM Tris-HCl, 1 mM EDTA, 3 mM MgCl2, 5 mg/mL BSA, pH 7.4) along with 2.5 nM [^3H]CP-55,940. Total binding was assessed in the presence of equal concentration of DMSO, while non-specific binding was determined in the presence of 10 μM CP-55,940, and background binding was determined in wells lacking membrane. Following incubation at 30° C. for 60 min, the binding reactions were terminated by vacuum filtration through Whatman GF/C filters. The filters were then washed twice with ice-cold buffer (50 mM Tris-HCl, 1 mg/mL BSA). Liquid scintillation cocktail was added to each well and the total tritiated counts per minute were analyzed using a TopCount scintillation counter. Background counts were subtracted from all wells and the percent displacement from total binding was calculated.
The compounds were initially screened at 10 μM concentrations. If they produced at least ±30% displacement of the radioligand, then full competition curves were constructed. Ki values were calculated using GraphPad Prism (San Diego, CA, USA) and Kd values determined using a 1 site fit. All assays were run in technical and biological replicates so that the n=5-6. PK Evaluation in CD-1 Mice
The CB1/CB2 receptor binding activities of analogs 4a-4q were assessed via radioactivity-based competitive binding assays using [^3H]CP55,940, an extensively studied radioligand that is frequently used for cannabinoid assays. […] In preliminary screening, all 17 synthetic PBD compounds (4a-4q) were subjected to in vitro CB1 and CB2 binding assays at a single concentration of 10 μM. […] Therefore, the most promising ligands (4k and 4q) were selected for assessment in full competition curves against CB1 and CB2.

## O=C1c2ccc(Cl)cc2N/C(=N/N=C/c2cc3ccccc3s2)[C@@H]2CCCN12 [Compound 4k]
mice; FIG. 3A, 4k 5 mg/kg versus vehicle
  number writhes per 5 min: lower
mice; FIG. 3B, 30 min
  total frequency of writhes over the entire experiment: lowest
mice; oxycodone 3 mg/kg, compound 4k 5 mg/kg, versus vehicle
  writhing over 30 minutes: attenuate writhing; also recorded: significantly less writhing
Human CB2 receptors
  Ki: 146 nM
